By IC50 is commonly meant the concentration that inhibits the measured activity by half.

SMILES strings stand for the structures.

In one assay the target is T1, wild-type LRKK2 (Mus musculus, UniProt Q5S006).
T1 construct: endogenous in cells; host or cells: NIH-3T3
The assay is described as follows: LRRK2 immunoblot, phosphorylation of Ser935, NIH-3T3 cell lysates. To be noted: FIG. 1. It is filed as cell-based. The procedure:
Cell lysates were extracted from the NIH-3T3 cell pellet using lysis buffer (40 mM Tris-HCl pH 8.0, 120 mM NaCl, 0.10% Nonidet™-P40) supplemented with protease inhibitors. Proteins in whole-cell lysates were separated by SDS-PAGE and transferred to an Amersham™ nitrocellulose membrane (Amersham, UK). Nitrocellulose membranes were blocked with 5% skim milk in phosphate-buffered saline containing Tween 20 and incubated with primary antibodies overnight at 4° C. The blots were then incubated with the appropriate horseradish peroxidase (HRP)-conjugated secondary antibodies and proteins were visualized by enhanced chemiluminescence, according to the manufacturer's protocol (Amersham™ Western blotting). Secondary antibodies, anti-rabbit IgG-HRP were purchased from Cell Signaling technology. Immunoblot film were scanned on a LAS500 scanner, and images were managed with Adobe Photoshop
Background: Immunoblotting shows a protein as a band on a membrane.

A further assay has as its target human LRRK2 kinase (Homo sapiens, UniProt Q5S007). As to conditions: LRRK2, ADP-Glo, ATP 10 μM, 60 minutes at 25° C.

human LRRK2 kinase, sequence (Q5S007 whole entry): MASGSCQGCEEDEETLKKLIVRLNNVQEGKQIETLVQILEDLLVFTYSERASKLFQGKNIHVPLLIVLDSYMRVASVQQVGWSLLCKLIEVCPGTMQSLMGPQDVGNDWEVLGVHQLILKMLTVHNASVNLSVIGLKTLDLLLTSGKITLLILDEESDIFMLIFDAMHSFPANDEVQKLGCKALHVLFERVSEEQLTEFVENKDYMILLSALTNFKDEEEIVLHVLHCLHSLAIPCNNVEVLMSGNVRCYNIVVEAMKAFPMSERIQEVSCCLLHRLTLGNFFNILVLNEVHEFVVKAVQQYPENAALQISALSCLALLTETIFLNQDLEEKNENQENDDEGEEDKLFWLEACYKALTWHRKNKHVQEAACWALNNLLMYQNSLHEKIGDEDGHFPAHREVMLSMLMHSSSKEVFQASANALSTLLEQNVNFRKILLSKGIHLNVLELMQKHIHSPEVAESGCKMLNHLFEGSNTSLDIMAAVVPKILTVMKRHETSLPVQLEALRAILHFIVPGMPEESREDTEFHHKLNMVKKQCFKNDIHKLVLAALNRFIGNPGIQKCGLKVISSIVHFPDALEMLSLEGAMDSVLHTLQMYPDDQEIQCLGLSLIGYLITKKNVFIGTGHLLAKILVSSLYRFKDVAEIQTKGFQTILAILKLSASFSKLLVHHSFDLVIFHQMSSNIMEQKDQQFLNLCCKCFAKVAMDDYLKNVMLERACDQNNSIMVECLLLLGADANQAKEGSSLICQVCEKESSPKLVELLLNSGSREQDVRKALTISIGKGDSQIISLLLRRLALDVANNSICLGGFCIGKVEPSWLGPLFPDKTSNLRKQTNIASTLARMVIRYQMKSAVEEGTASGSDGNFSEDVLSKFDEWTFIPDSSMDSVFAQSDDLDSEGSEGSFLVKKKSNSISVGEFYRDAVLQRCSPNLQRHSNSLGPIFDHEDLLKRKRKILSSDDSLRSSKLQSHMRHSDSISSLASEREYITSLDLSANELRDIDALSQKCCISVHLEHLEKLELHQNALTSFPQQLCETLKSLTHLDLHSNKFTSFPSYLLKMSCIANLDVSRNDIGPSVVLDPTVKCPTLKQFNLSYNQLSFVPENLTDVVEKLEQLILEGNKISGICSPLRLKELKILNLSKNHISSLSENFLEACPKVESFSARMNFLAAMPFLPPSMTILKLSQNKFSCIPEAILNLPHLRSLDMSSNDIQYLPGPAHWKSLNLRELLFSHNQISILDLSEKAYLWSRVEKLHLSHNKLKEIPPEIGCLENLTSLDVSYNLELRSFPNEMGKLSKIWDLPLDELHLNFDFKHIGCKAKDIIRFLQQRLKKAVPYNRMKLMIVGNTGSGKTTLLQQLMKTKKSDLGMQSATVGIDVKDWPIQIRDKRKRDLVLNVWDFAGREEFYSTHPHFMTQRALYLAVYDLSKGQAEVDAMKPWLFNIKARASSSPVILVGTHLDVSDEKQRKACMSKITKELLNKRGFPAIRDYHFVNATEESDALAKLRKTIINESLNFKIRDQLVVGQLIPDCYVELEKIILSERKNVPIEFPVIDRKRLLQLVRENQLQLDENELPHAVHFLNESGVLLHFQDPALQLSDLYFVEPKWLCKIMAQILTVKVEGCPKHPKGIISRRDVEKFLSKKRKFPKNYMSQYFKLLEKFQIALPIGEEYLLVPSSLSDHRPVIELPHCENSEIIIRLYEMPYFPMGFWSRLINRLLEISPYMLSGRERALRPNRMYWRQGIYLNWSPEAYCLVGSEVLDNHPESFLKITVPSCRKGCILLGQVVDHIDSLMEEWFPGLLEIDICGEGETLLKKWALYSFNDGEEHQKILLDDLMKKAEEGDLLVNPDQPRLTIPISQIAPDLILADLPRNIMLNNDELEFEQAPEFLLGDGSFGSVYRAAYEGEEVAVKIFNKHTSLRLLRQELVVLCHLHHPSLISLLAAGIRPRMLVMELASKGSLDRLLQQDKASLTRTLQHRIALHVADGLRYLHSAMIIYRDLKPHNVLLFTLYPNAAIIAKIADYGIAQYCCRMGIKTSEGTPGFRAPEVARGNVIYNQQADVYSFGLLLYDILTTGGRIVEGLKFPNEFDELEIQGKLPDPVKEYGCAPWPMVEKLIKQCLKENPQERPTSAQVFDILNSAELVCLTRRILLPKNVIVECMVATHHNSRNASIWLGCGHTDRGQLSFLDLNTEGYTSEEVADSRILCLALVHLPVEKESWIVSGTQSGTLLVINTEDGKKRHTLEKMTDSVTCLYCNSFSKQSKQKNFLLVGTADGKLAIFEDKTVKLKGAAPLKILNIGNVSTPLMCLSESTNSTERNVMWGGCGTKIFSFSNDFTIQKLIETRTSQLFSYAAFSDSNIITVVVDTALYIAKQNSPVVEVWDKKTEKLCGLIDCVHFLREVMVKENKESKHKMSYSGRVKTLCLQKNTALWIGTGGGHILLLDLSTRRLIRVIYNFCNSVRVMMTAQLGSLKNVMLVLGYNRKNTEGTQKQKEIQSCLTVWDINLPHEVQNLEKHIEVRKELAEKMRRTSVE
T1 sequence (Q5S006 whole entry): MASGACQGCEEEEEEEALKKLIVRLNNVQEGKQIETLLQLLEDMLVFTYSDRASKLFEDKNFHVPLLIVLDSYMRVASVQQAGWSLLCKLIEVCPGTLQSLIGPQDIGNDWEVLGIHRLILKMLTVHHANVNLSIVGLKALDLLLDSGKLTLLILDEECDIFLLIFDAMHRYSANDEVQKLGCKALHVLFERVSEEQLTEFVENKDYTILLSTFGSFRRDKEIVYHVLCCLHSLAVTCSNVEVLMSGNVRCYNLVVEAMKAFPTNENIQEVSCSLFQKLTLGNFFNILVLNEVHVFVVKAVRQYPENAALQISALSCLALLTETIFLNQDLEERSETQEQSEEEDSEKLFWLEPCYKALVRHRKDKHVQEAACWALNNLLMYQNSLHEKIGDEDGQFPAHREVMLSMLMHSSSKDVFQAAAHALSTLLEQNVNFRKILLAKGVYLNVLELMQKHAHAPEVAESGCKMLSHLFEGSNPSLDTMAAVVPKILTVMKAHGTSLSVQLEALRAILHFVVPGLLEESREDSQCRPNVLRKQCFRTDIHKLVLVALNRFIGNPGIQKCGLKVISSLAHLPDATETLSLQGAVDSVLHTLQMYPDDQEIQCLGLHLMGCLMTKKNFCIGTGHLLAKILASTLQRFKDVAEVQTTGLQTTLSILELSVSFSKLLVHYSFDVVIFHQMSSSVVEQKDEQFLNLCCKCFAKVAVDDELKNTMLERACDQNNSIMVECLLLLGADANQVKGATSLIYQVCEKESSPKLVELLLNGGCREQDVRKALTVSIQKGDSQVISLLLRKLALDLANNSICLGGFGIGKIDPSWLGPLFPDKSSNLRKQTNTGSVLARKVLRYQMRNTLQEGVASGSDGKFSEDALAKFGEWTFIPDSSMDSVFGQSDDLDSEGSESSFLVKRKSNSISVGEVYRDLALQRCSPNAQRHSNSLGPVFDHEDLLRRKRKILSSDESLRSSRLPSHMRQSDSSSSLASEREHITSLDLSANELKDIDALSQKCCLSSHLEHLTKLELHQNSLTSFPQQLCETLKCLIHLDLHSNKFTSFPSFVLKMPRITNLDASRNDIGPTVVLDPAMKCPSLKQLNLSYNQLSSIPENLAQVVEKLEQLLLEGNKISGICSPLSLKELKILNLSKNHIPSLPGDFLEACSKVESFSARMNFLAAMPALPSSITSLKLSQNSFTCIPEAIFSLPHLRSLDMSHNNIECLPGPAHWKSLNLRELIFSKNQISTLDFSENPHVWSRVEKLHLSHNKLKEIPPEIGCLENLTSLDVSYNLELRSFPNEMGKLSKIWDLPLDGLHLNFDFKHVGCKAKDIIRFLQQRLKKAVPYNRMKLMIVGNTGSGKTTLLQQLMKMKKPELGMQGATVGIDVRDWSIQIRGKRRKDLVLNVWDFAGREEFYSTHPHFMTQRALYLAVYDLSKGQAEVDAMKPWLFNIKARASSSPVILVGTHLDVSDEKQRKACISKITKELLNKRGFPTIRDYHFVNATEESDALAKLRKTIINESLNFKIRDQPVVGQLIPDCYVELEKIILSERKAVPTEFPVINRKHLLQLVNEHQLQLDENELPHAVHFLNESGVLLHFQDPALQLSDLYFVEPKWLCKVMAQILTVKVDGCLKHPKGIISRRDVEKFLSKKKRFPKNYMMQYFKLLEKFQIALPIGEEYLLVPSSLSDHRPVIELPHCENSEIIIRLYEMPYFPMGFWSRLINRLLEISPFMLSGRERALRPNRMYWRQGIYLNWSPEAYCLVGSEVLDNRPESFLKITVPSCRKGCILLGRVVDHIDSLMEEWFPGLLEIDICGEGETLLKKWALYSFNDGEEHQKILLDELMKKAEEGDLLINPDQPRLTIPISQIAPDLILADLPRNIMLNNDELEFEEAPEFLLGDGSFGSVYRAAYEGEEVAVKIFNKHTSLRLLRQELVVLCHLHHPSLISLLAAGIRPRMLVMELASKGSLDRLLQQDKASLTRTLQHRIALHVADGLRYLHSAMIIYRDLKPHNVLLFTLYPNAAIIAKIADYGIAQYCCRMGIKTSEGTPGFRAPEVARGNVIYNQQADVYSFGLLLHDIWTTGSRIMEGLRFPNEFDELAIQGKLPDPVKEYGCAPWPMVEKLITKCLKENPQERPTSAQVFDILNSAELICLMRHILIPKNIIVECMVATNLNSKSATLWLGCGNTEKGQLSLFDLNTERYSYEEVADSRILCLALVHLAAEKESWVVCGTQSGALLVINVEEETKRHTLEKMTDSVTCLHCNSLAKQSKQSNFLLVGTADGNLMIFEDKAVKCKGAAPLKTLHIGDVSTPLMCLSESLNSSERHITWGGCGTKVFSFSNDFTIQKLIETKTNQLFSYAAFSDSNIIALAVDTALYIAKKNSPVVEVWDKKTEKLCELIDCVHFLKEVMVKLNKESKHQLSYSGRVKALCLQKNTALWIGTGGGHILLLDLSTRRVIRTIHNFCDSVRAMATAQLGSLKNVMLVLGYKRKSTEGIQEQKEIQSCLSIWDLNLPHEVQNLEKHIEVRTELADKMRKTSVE
Method for human LRRK2 kinase: Assay kits from Promega™ Corporation were used according to instructions and adapted as outlined herein. […] The kinase reaction was performed with kinase reaction buffer (40 mM Tris base pH 7.4, 20 mM MgCl2, 0.5 mM dithiothreitol), 0.1 mg/ml bovine serum albumin, distilled H2O). […] In brief, the kinase reactions were started by addition of ATP to the kinase reaction mixture. The resulting mixture was incubated for 60 minutes at 25° C., and then stopped by adding 5 μl of ADP-Glo™ reagent. After incubation at room temperature in the dark for 40 minutes, 10 μl of kinase detection reagent was added per well, and the mixture was incubated for 10 minutes. […] Positive and negative controls were performed in 0.5% DMSO in the presence and absence of LRRK2 kinases. Curve fitting and data presentations were performed using GraphPad Prism version 5.0 (GraphPad Software, Inc.).

As for `CCCNc1nc(Nc2ccc(C(=O)N3CCC(N4CCOCC4)CC3)c3c2OCCO3)nc2[nH]cc(Cl)c12` [Compound 2, (8-((5-chloro-4-(propylamino)-7H-pyrrolo[2,3-d]pyrimidin-2-yl)amino)-2,3-dihydrobenzo[b][1,4]dioxin-5-yl)(4-morpholinopiperidin-1-yl)methanone], on wild-type LRKK2, the “inhibition of the phosphorylation of Ser935 in wild-type LRKK2” value (shortened to “inhibition”) was “inhibited the phosphorylation of Ser935 in wild-type LRKK2 with potency similar to known LRRK2 inhibitor LRRK2-IN-1”. Also, the IC50 at human LRRK2 kinase is below 10 nM.

As for `COc1cc(C(=O)N2CCC(N3CCN(C)CC3)CC2)ccc1Nc1ncc2c(n1)N(C)c1ccccc1C(=O)N2C` [LRRK2-IN-1, reference compound], the “inhibition” value at wild-type LRKK2 was “inhibition of the phosphorylation of Ser935”.

As to `CCCNc1nc(Nc2ccc(S(=O)(=O)N3CCC(N4CCOCC4)CC3)cc2OC)nc2[nH]cc(Cl)c12` [Compound 19, 5-chloro-N2-(2-methoxy-4-((4-morpholinopiperidin-1-yl)sulfonyl)phenyl)-N4-propyl-7H-pyrrolo[2,3-d]pyrimidine-2,4-diamine], the “inhibition” value against wild-type LRKK2 was “inhibited the phosphorylation of Ser935 in wild-type LRKK2 with potency similar to known LRRK2 inhibitor LRRK2-IN-1”. Also, the 50% inhibitory concentration (IC50) against human LRRK2 kinase fell in the range of 100 to 1000 nM.

At human LRRK2 kinase, `O=C(c1ccc(Nc2nc(NC3CCC3)c3c(Cl)c[nH]c3n2)c2c1CCO2)N1CCC(N2CCOCC2)CC1` [Compound 103, (7-((5-chloro-4-(cyclobutylamino)-7H-pyrrolo[2,3-d]pyrimidin-2-yl)amino)-2,3-dihydrobenzofuran-4-yl)(4-morpholinopiperidin-1-yl)methanone] had a concentration for half-maximal inhibition (IC50) of 10 to 100 nM.

Take `COc1cc(S(C)(=O)=O)ccc1Nc1nc(NCC2CCC2)c2c(Cl)c[nH]c2n1` [Compound 66, 5-chloro-N4-(cyclobutylmethyl)-N2-(2-methoxy-4-(methylsulfonyl)phenyl)-7H-pyrrolo[2,3-d]pyrimidine-2,4-diamine]: the IC50 on human LRRK2 kinase is 100 to 1000 nM.

As to `COc1cc(S(C)(=O)=O)ccc1Nc1nc(NC2CCOCC2)c2c(Cl)c[nH]c2n1` [Compound 63, 5-chloro-N2-(2-methoxy-4-(methylsulfonyl)phenyl)-N4-(tetrahydro-2H-pyran-4-yl)-7H-pyrrolo[2,3-d]pyrimidine-2,4-diamine], the IC50 against human LRRK2 kinase fell in the range of 10 to 100 nM.

On human LRRK2 kinase, `COc1cc(P2(=O)CCN(C(C)=O)CC2)ccc1Nc1nc(NCC(C)C)c2c(Cl)c[nH]c2n1` [Compound 97, 1-(4-(4-((5-chloro-4-(isobutylamino)-7H-pyrrolo[2,3-d]pyrimidin-2-yl)amino)-3-methoxyphenyl)-4-oxido-1,4-azaphosphinan-1-yl)ethan-1-one] showed an IC50 of 10 to 100 nM.

Turning to `COc1cc(S(=O)(=O)N2CCOCC2)ccc1Nc1nc(NC2CC2)c2c(Cl)c[nH]c2n1` [Compound 24, 5-chloro-N4-cyclopropyl-N2-(2-methoxy-4-(morpholinosulfonyl)phenyl)-7H-pyrrolo[2,3-d]pyrimidine-2,4-diamine], on human LRRK2 kinase, the IC50 was 10 to 100 nM.

As for `CCC(C)Nc1nc(Nc2ccc(S(C)(=O)=O)cc2OC)nc2[nH]cc(Cl)c12` (stereo in doubt) [Compound 53, (S)—N4-(sec-butyl)-5-chloro-N2-(2-methoxy-4-(methylsulfonyl)phenyl)-7H-pyrrolo[2,3-d]pyrimidine-2,4-diamine], the IC50 at human LRRK2 kinase was in the range of 100 to 1000 nM.

In the case of `COc1cc(S(=O)(=O)N2CCOCC2)ccc1Nc1nc(N[C@H]2CCOC2)c2c(Cl)c[nH]c2n1` [Compound 60, (S)-5-chloro-N2-(2-methoxy-4-(morpholinosulfonyl)phenyl)-N4-(tetrahydrofuran-3-yl)-7H-pyrrolo[2,3-d]pyrimidine-2,4-diamine], the concentration for half-maximal inhibition (IC50) at human LRRK2 kinase lay within 10 to 100 nM.

At human LRRK2 kinase, `CNc1nc(Nc2ccc(P3(=O)CCN(C(C)=O)CC3)cc2OC)nc2[nH]cc(Cl)c12` [Compound 82, 1-(4-(4-((5-chloro-4-(methylamino)-7H-pyrrolo[2,3-d]pyrimidin-2-yl)amino)-3-methoxyphenyl)-4-oxido-1,4-azaphosphinan-1-yl)ethan-1-one] yielded an IC50 below 10 nM.

Compound `COc1cc(S(C)(=O)=O)ccc1Nc1nc(NCC(C)C)c2c(Cl)c[nH]c2n1` [Compound 32, 5-chloro-N4-isobutyl-N2-(2-methoxy-4-(methylsulfonyl)phenyl)-7H-pyrrolo[2,3-d]pyrimidine-2,4-diamine] displayed a concentration for half-maximal inhibition (IC50) against human LRRK2 kinase of 100 to 1000 nM.

As for `CNc1nc(Nc2ccc(S(C)(=O)=O)cc2OC)nc2[nH]cc(Cl)c12` [Compound 13, 5-chloro-N2-(2-methoxy-4-(methylsulfonyl)phenyl)-N4-methyl-7H-pyrrolo[2,3-d]pyrimidine-2,4-diamine], the IC50 against human LRRK2 kinase was below 10 nM.

For the compound `CC[C@@H](C)Nc1nc(Nc2ccc(S(=O)(=O)N3CCOCC3)cc2OC)nc2[nH]cc(Cl)c12` [Compound 47, (R)—N4-(sec-butyl)-5-chloro-N2-(2-methoxy-4-(morpholinosulfonyl)phenyl)-7H-pyrrolo[2,3-d]pyrimidine-2,4-diamine], the half-maximal inhibitory concentration (IC50) against human LRRK2 kinase lay within 100 to 1000 nM.

`CNc1nc(Nc2ccc(C(=O)N3CCOCC3)c3c2OCC3)nc2[nH]cc(Cl)c12` [Compound 76, (7-((5-chloro-4-(methylamino)-7H-pyrrolo[2,3-d]pyrimidin-2-yl)amino)-2,3-dihydrobenzofuran-4-yl)(morpholino)methanone]: at human LRRK2 kinase, the IC50 is below 10 nM.

As to `COc1cc(S(C)(=O)=O)ccc1Nc1nc(N[C@H]2CCOC2)c2c(Cl)c[nH]c2n1` [Compound 94, (S)-5-chloro-N2-(2-methoxy-4-(methylsulfonyl)phenyl)-N4-(tetrahydrofuran-3-yl)-7H-pyrrolo[2,3-d]pyrimidine-2,4-diamine], the 50% inhibitory concentration (IC50) against human LRRK2 kinase is below 10 nM.

Compound `COc1cc(S(C)(=O)=O)ccc1Nc1nc(NCC2CC2)c2c(Cl)c[nH]c2n1` [Compound 64, 5-chloro-N4-(cyclopropylmethyl)-N2-(2-methoxy-4-(methylsulfonyl)phenyl)-7H-pyrrolo[2,3-d]pyrimidine-2,4-diamine] came in with a 50% inhibitory concentration (IC50) on human LRRK2 kinase of 10 to 100 nM.

On to `CCNc1nc(Nc2ccc(C(=O)N3CCOCC3)c3c2OCC3)nc2[nH]cc(Cl)c12` [Compound 101, (7-((5-chloro-4-(ethylamino)-7H-pyrrolo[2,3-d]pyrimidin-2-yl)amino)-2,3-dihydrobenzofuran-4-yl)(morpholino)methanone], for which the IC50 against human LRRK2 kinase was below 10 nM.

As for `COCCNc1nc(Nc2ccc(S(=O)(=O)N3CCOCC3)cc2OC)nc2[nH]cc(Cl)c12` [Compound 21, 5-chloro-N2-(2-methoxy-4-(morpholinosulfonyl)phenyl)-N4-(2-methoxyethyl)-7H-pyrrolo[2,3-d]pyrimidine-2,4-diamine], the half-inhibitory concentration (IC50) against human LRRK2 kinase is below 10 nM.

`CCC(C)Nc1nc(Nc2ccc(S(=O)(=O)N3CCC(N4CCOCC4)CC3)cc2OC)nc2[nH]cc(Cl)c12` (stereo in doubt) [Compound 52, (S)—N4-(sec-butyl)-5-chloro-N2-(2-methoxy-4-((4-morpholinopiperidin-1-yl)sulfonyl)phenyl)-7H-pyrrolo[2,3-d]pyrimidine-2,4-diamine] gave a half-inhibitory concentration (IC50) against human LRRK2 kinase of 10 to 100 nM.

The compound `COc1cc(P2(=O)CCN(C3CC3)CC2)ccc1Nc1nc(NC2CCC2)c2c(Cl)c[nH]c2n1` [Compound 104, 4-(4-((5-chloro-4-(cyclobutylamino)-7H-pyrrolo[2,3-d]pyrimidin-2-yl)amino)-3-methoxyphenyl)-1-cyclopropyl-1,4-azaphosphinane 4-oxide] had an IC50 against human LRRK2 kinase of 10 to 100 nM.

Regarding `COc1cc(P2(=O)CCN(C3CC3)CC2)ccc1Nc1nc(NCC(C)C)c2c(Cl)c[nH]c2n1` [Compound 96, 4-(4-((5-chloro-4-(isobutylamino)-7H-pyrrolo[2,3-d]pyrimidin-2-yl)amino)-3-methoxyphenyl)-1-cyclopropyl-1,4-azaphosphinane 4-oxide], at human LRRK2 kinase, the IC50 was in the range of 100 to 1000 nM.

Regarding `O=C(c1ccc(Nc2nc(NC3CCC3)c3c(Cl)c[nH]c3n2)c2c1OCCO2)N1CCOCC1` [Compound 30, (8-((5-chloro-4-(cyclobutylamino)-7H-pyrrolo[2,3-d]pyrimidin-2-yl)amino)-2,3-dihydrobenzo[b][1,4]dioxin-5-yl)(morpholino)methanone], the 50% inhibitory concentration (IC50) on human LRRK2 kinase was below 10 nM.

`COc1cc(P2(=O)CCN(C3CC3)CC2)ccc1Nc1nc(NC2CC2)c2c(Cl)c[nH]c2n1` [Compound 90, 4-(4-((5-chloro-4-(cyclopropylamino)-7H-pyrrolo[2,3-d]pyrimidin-2-yl)amino)-3-methoxyphenyl)-1-cyclopropyl-1,4-azaphosphinane 4-oxide] registered an IC50 on human LRRK2 kinase of 10 to 100 nM.

`COc1cc(P2(=O)CCN(C3CCOCC3)CC2)ccc1Nc1nc(NC2CCCC2)c2c(Cl)c[nH]c2n1` [Compound 79]: the half-inhibitory concentration (IC50) against human LRRK2 kinase lay within 10 to 100 nM.

`COc1cc(S(C)(=O)=O)ccc1Nc1nc(NC2CCCCC2)c2c(Cl)c[nH]c2n1` [Compound 59, 5-chloro-N4-cyclohexyl-N2-(2-methoxy-4-(methylsulfonyl)phenyl)-7H-pyrrolo[2,3-d]pyrimidine-2,4-diamine] returned a half-inhibitory concentration (IC50) on human LRRK2 kinase of 100 to 1000 nM.

`CC(C)Nc1nc(Nc2ccc(C(=O)N3CCC(N4CCOCC4)CC3)c3c2OCCO3)nc2[nH]cc(Cl)c12` [Compound 88]: the IC50 against human LRRK2 kinase lay in the range of 10 to 100 nM.

On to `CCCNc1nc(Nc2ccc(C(=O)N3CCOCC3)c3c2OCCO3)nc2[nH]cc(Cl)c12` [Compound 20, (8-((5-chloro-4-(propylamino)-7H-pyrrolo[2,3-d]pyrimidin-2-yl)amino)-2,3-dihydrobenzo[b][1,4]dioxin-5-yl)(morpholino)methanone], for which, on human LRRK2 kinase, the half-maximal inhibitory concentration (IC50) lay within 10 to 100 nM.

At human LRRK2 kinase, `CNc1nc(Nc2ccc(C(=O)N3CCOCC3)c3c2OCCO3)nc2[nH]cc(Cl)c12` [Compound 14, (8-((5-chloro-4-(methylamino)-7H-pyrrolo[2,3-d]pyrimidin-2-yl)amino)-2,3-dihydrobenzo[b][1,4]dioxin-5-yl)(morpholino)methanone] registered an IC50 below 10 nM.

Source of the values: patent publication US12479847B2 (DANA-FARBER CANCER INSTITUTE, INC., priority 2019, dated 2025).
